Measurements taken from a melting point compilation (Tetko et al.).

SMILES	melting point
OCc1cn(-c2ccccc2)nc1-c1cccs1	115 to 117 °C
CCN1CCc2nc3ccccc3c(C(=O)O)c2C1	278 to 280 °C
CC(C)(C)CNc1cccnc1	62 to 64 °C
Cc1cc(C)n2nc(C(=O)O)nc2n1	178 to 180 °C
Fc1ccc(-c2csc3ncnc(S)c23)cc1	244 to 246 °C
CCC(C)C(NC(=O)c1ccccc1)C(=O)O (stereo not drawn)	117 to 119 °C
c1ccc2sc(NCCCN3CCOCC3)nc2c1	182 to 184 °C
Cn1cc(Br)nn1	99 to 101 °C
O=C(Cc1ccccc1Cl)NCCCO	77 to 79 °C
Cc1cc(COc2ccc(C(=O)O)cc2Br)on1	209 to 211 °C
CC(O)c1cn(CC(=O)O)nn1 (stereo not drawn)	134 to 136 °C
CC(C)c1cc(C(=O)O)c2ccccc2n1	141 to 143 °C
O=C(O)CNC(=O)c1ccccn1	167 to 169 °C
O=C(O)c1noc2c1CCCC2	124 to 126 °C
CCOC(=O)c1c(C)n(CC)c2ccc(O)cc12	183 to 185 °C
Cc1cc(NS(C)(=O)=O)ccc1Br	102 to 104 °C
O=C(O)CSc1nc2cc(Cl)ccc2n1Cc1ccccc1	155 to 157 °C
CSCc1c(C(=O)O)sc2ccccc12	201 to 203 °C
CN(C)c1ccc(C2=CCNC2)cc1	99 to 101 °C
COC(=O)C1CC(O)CN1C(=O)c1ccc(F)cc1 (stereo not drawn)	150 to 152 °C
Nc1cccc2c1C(=O)NC2=O	268 to 270 °C
Cc1ccc(Oc2ccc(C#N)cc2)cc1	69 to 71 °C
Cc1ncc(Br)n1C	92 to 94 °C
c1cnc2c(c1)NCCO2	111 to 113 °C
O=C(O)CCSc1ccccc1Cl	92 to 102 °C

SMILES	melting point
Cc1ccc(S(=O)(=O)N(C)CC(=O)O)cc1	228 to 230 °C
CCC(=CC(=O)O)c1ccccc1	92 to 94 °C
Cc1c(C(=O)O)nnn1-c1cccc2cccnc12	188 to 190 °C
COC(=O)CN(C)c1ccc(Br)cn1	92 to 94 °C
O=C(O)C(=O)Nc1ccc(Br)cc1C(F)(F)F	116 to 118 °C
CC1(C)C(=O)Nc2ccccc2N1C(=O)CCl	170 to 172 °C
CS(=O)(=O)NCCN=C=S	163 to 165 °C
CCOc1ccc(N)cc1CN1CCCC1	58 to 60 °C
Cc1ccc(-c2nn(-c3ccccc3)cc2C(=O)O)o1	160 to 163 °C
COc1ccc(S(=O)(=O)NC(C(=O)O)C(C)C)cc1 (stereo not drawn)	172 to 174 °C
O=C(O)CSc1ccc(O)cc1	141 to 143 °C
O=C(CSc1cccs1)Nc1ccc(C(=O)O)cc1	233 to 235 °C
NC(=O)c1cc(N)cc(C(N)=O)c1	246 to 248 °C
COC(=O)c1cc(F)c(Br)c([N+](=O)[O-])c1	66 to 68 °C
O=C(O)c1c[nH]cc1-c1ccc([N+](=O)[O-])cc1	209 to 211 °C
Cc1nc2n(n1)CC(N)CC2 (stereo not drawn)	60 to 62 °C
COC(=O)c1cnc2[nH]nc(C)c2c1	185 to 187 °C
CC(=O)c1cnn(C)c1	51 to 53 °C
O=S(=O)(Cl)C1=Cc2ccc(OC(F)F)cc2CC1	72 to 74 °C
Cc1c(C(=O)O)nnn1-c1ccc(F)cc1	181 to 183 °C
Cc1ccn2c(CN3CCNCC3)c(C)nc2c1	97 to 99 °C
O=C(O)c1ccccc1S(=O)(=O)N1CCCCC1	106 to 108 °C
O=C(O)c1ccc(SCc2cn3ccccc3n2)cc1	102 to 103 °C
COCCCC(N)=S	48 to 50 °C
O=C(NNC(=O)C(Cl)Cl)c1ccccc1	184 to 186 °C

SMILES	melting point
COc1cc(C=O)cc(OC)c1OC(C)=O	115 to 117 °C
CS(=O)(=O)c1cccc(Oc2ccc(N)cc2)c1	103 to 105 °C
Cc1cc(C)nc(SCC(=O)NN)n1	119 to 121 °C
O=C(O)c1cnc2c(cnn2Cc2ccccc2)c1	210 to 212 °C
N#Cc1ccc(Oc2ccc(O)cc2)cc1	148 to 150 °C
CC(C)(C)OC(=O)N1CCOCC1C(=N)NO (stereo not drawn)	154 to 156 °C
CC(=O)Cn1c(CCl)nc2sc3c(c2c1=O)CCCC3	132 to 134 °C
CCCCN(CC)c1ccc(C(=O)O)cc1	137 to 139 °C
Cc1c(-c2ccccc2)sc(N)c1C(=O)N1CCOCC1	187 to 189 °C
O=C(O)C1CC(=O)N(c2cccc(Br)c2)C1 (stereo not drawn)	142 to 144 °C
Cn1c(=O)n(C)c2cc(Br)ccc21	163 to 165 °C
CC(C)CC(NS(C)(=O)=O)C(=O)O (stereo not drawn)	67 to 69 °C
O=c1[nH]cnc2ccc([N+](=O)[O-])cc12	284 to 286 °C
NCC(O)c1ccco1 (stereo not drawn)	80 to 82 °C
NC(=O)NCC1CCCNC1 (stereo not drawn)	83 to 85 °C
NC1(CO)Cc2ccccc2C1	107 to 109 °C
Nn1c(S)nnc1-c1ccco1	207 to 209 °C
O=C(CCl)NCc1ccc(C(=O)N2CCOCC2)cc1	142 to 144 °C
CC=C(C)C=CC(=O)O	89 to 91 °C
O=C(c1cccc(F)c1)c1cccc(Cl)c1	62 to 64 °C
CCN(CC)S(=O)(=O)c1ccc2c(c1)CCN2	80 to 82 °C
Nc1cc(S(=O)(=O)N2CCCCC2)ccc1Cl	129 to 131 °C
CC1(C)NC(=O)c2ccccc2O1	131 to 133 °C
